The record followed here is BindingDB's records for doi:10.1021/jm025595i (Enanta Pharmaceuticals, 2003).

Structures are written as SMILES. pIC50: −log10 of the molar value. A value given as a limit tells only on which side of the number the result lay.

Assay [1] can be described thus: Compound was evaluated for its inhibitory activity in a calcineurin inhibition assay.
Assay [2] in a line: Compound was evaluated for its inhibitory activity in a calcineurin inhibition assay (MOM).
Assay [3] can be described thus: Compound was evaluated for its inhibitory activity in a calcineurin inhibition assay (morn).
A short description of assay [4]: Compound was evaluated for its inhibitory activity in a calcineurin inhibition assay (MTM).

The pIC50 is the IC50 on a negative log10 scale, so that one unit is a factor of ten. Regarding `CC[C@@H]1NC(=O)[C@H]([C@H](O)[C@H](C)C/C=C/C(=O)OCCF)N(C)C(=O)[C@H](C(C)C)N(C)C(=O)[C@H](CC(C)C)N(C)C(=O)[C@H](CC(C)C)N(C)C(=O)[C@@H](C)NC(=O)[C@H](C)NC(=O)[C@H](CC(C)C)N(C)C(=O)[C@H](C(C)C)NC(=O)[C@H](CC(C)C)N(C)C(=O)CN(C)C1=O` [6-(5-Ethyl-11,17,26,29-tetraisobutyl-14,32-diisopropyl-1,7,10,16,20,23,25,28,31-nonamethyl-3,6,9,12,15,18,21,24,27,30,33-undecaoxo-1,4,7,10,13,16,19,22,25,28,31undecaaza-cyclotritriacont-2-yl)-6-hydroxy-5-methyl-hex-2-enoic acid 2-fluoro-ethyl ester], the negative-log IC50 (pIC50) in assay [1] is 6.20. The same measure, in the same setting: the figure for `CCOC(=O)/C=C/C[C@@H](C)[C@@H](O)[C@H]1C(=O)N[C@@H](CC)C(=O)N(C)CC(=O)N(C)[C@@H](CC(C)C)C(=O)N[C@@H](C(C)C)C(=O)N(C)[C@@H](CC(C)C)C(=O)N[C@@H](C)C(=O)N[C@H](C)C(=O)N(C)[C@@H](CC(C)C)C(=O)N(C)[C@@H](CC(C)C)C(=O)N(C)[C@@H](C(C)C)C(=O)N1C` [6-(5-Ethyl-11,17,26,29-tetraisobutyl-14,32-diisopropyl-1,7,10,16,20,23,25,28,31-nonamethyl-3,6,9,12,15,18,21,24,27,30,33-undecaoxo-1,4,7,10,13,16,19,22,25,28,31undecaaza-cyclotritriacont-2-yl)-6-hydroxy-5-methyl-hex-2-enoic acid ethyl ester] is 6.44. With `CC[C@@H]1NC(=O)[C@H]([C@H](O)[C@H](C)C/C=C/C(=O)OCOC)N(C)C(=O)[C@H](C(C)C)N(C)C(=O)[C@H](CC(C)C)N(C)C(=O)[C@H](CC(C)C)N(C)C(=O)[C@@H](C)NC(=O)[C@H](C)NC(=O)[C@H](CC(C)C)N(C)C(=O)[C@H](C(C)C)NC(=O)[C@H](CC(C)C)N(C)C(=O)CN(C)C1=O` [6-(5-Ethyl-11,17,26,29-tetraisobutyl-14,32-diisopropyl-1,7,10,16,20,23,25,28,31-nonamethyl-3,6,9,12,15,18,21,24,27,30,33-undecaoxo-1,4,7,10,13,16,19,22,25,28,31undecaaza-cyclotritriacont-2-yl)-6-hydroxy-5-methyl-hex-2-enoic acid methoxymethyl ester], the pIC50 in assay [2] was 5.72; in assay [3], 6.13. Consider `CC[C@@H]1NC(=O)[C@H]([C@H](O)[C@H](C)C/C=C/C(=O)OC)N(C)C(=O)[C@H](C(C)C)N(C)C(=O)[C@H](CC(C)C)N(C)C(=O)[C@H](CC(C)C)N(C)C(=O)[C@@H](C)NC(=O)[C@H](C)NC(=O)[C@H](CC(C)C)N(C)C(=O)[C@H](C(C)C)NC(=O)[C@H](CC(C)C)N(C)C(=O)CN(C)C1=O` [6-(5-Ethyl-11,17,26,29-tetraisobutyl-14,32-diisopropyl-1,7,10,16,20,23,25,28,31-nonamethyl-3,6,9,12,15,18,21,24,27,30,33-undecaoxo-1,4,7,10,13,16,19,22,25,28,31undecaaza-cyclotritriacont-2-yl)-6-hydroxy-5-methyl-hex-2-enoic acid methyl ester], for which the pIC50 in assay [1] is 6.24. On to `CC[C@@H]1NC(=O)[C@H]([C@H](O)[C@H](C)C/C=C/C(=O)O)N(C)C(=O)[C@H](C(C)C)N(C)C(=O)[C@H](CC(C)C)N(C)C(=O)[C@H](CC(C)C)N(C)C(=O)[C@@H](C)NC(=O)[C@H](C)NC(=O)[C@H](CC(C)C)N(C)C(=O)[C@H](C(C)C)NC(=O)[C@H](CC(C)C)N(C)C(=O)CN(C)C1=O` [6-(5-Ethyl-11,17,26,29-tetraisobutyl-14,32-diisopropyl-1,7,10,16,20,23,25,28,31-nonamethyl-3,6,9,12,15,18,21,24,27,30,33-undecaoxo-1,4,7,10,13,16,19,22,25,28,31undecaaza-cyclotritriacont-2-yl)-6-hydroxy-5-methyl-hex-2-enoic acid], for which the negative-log IC50 (pIC50) in assay [1] was less than 5.30.

For `CC[C@@H]1NC(=O)[C@H]([C@H](O)[C@H](C)CCCC(=O)OCCF)N(C)C(=O)[C@H](C(C)C)N(C)C(=O)[C@H](CC(C)C)N(C)C(=O)[C@H](CC(C)C)N(C)C(=O)[C@@H](C)NC(=O)[C@H](C)NC(=O)[C@H](CC(C)C)N(C)C(=O)[C@H](C(C)C)NC(=O)[C@H](CC(C)C)N(C)C(=O)CN(C)C1=O` [6-(5-Ethyl-11,17,26,29-tetraisobutyl-14,32-diisopropyl-1,7,10,16,20,23,25,28,31-nonamethyl-3,6,9,12,15,18,21,24,27,30,33-undecaoxo-1,4,7,10,13,16,19,22,25,28,31undecaaza-cyclotritriacont-2-yl)-6-hydroxy-5-methyl-hexanoic acid 2-fluoro-ethyl ester], the pIC50 in assay [1] is 5.81.

As for `CCOC(=O)CCC[C@@H](C)[C@@H](O)[C@H]1C(=O)N[C@@H](CC)C(=O)N(C)CC(=O)N(C)[C@@H](CC(C)C)C(=O)N[C@@H](C(C)C)C(=O)N(C)[C@@H](CC(C)C)C(=O)N[C@@H](C)C(=O)N[C@H](C)C(=O)N(C)[C@@H](CC(C)C)C(=O)N(C)[C@@H](CC(C)C)C(=O)N(C)[C@@H](C(C)C)C(=O)N1C` [6-(5-Ethyl-11,17,26,29-tetraisobutyl-14,32-diisopropyl-1,7,10,16,20,23,25,28,31-nonamethyl-3,6,9,12,15,18,21,24,27,30,33-undecaoxo-1,4,7,10,13,16,19,22,25,28,31undecaaza-cyclotritriacont-2-yl)-6-hydroxy-5-methyl-hexanoic acid ethyl ester], the negative-log IC50 (pIC50) in assay [1] was 6.08.

Regarding `CC[C@@H]1NC(=O)[C@H]([C@H](O)[C@H](C)CCCC(=O)OC)N(C)C(=O)[C@H](C(C)C)N(C)C(=O)[C@H](CC(C)C)N(C)C(=O)[C@H](CC(C)C)N(C)C(=O)[C@@H](C)NC(=O)[C@H](C)NC(=O)[C@H](CC(C)C)N(C)C(=O)[C@H](C(C)C)NC(=O)[C@H](CC(C)C)N(C)C(=O)CN(C)C1=O` [6-(5-Ethyl-11,17,26,29-tetraisobutyl-14,32-diisopropyl-1,7,10,16,20,23,25,28,31-nonamethyl-3,6,9,12,15,18,21,24,27,30,33-undecaoxo-1,4,7,10,13,16,19,22,25,28,31undecaaza-cyclotritriacont-2-yl)-6-hydroxy-5-methyl-hexanoic acid methyl ester], the negative logarithm of the IC50 (pIC50) in assay [1] is 6.05. Still for that read-out and setting: the figure for `CC[C@@H]1NC(=O)[C@H]([C@H](O)[C@H](C)CCCC(=O)OCSC)N(C)C(=O)[C@H](C(C)C)N(C)C(=O)[C@H](CC(C)C)N(C)C(=O)[C@H](CC(C)C)N(C)C(=O)[C@@H](C)NC(=O)[C@H](C)NC(=O)[C@H](CC(C)C)N(C)C(=O)[C@H](C(C)C)NC(=O)[C@H](CC(C)C)N(C)C(=O)CN(C)C1=O` [6-(5-Ethyl-11,17,26,29-tetraisobutyl-14,32-diisopropyl-1,7,10,16,20,23,25,28,31-nonamethyl-3,6,9,12,15,18,21,24,27,30,33-undecaoxo-1,4,7,10,13,16,19,22,25,28,31undecaaza-cyclotritriacont-2-yl)-6-hydroxy-5-methyl-hexanoic acid methylsulfanylmethylester] is less than 5.30. Take `CC[C@@H]1NC(=O)[C@H]([C@H](O)[C@H](C)C/C=C/C(=O)OCSC)N(C)C(=O)[C@H](C(C)C)N(C)C(=O)[C@H](CC(C)C)N(C)C(=O)[C@H](CC(C)C)N(C)C(=O)[C@@H](C)NC(=O)[C@H](C)NC(=O)[C@H](CC(C)C)N(C)C(=O)[C@H](C(C)C)NC(=O)[C@H](CC(C)C)N(C)C(=O)CN(C)C1=O` [Cyclosporin A analogue]: the pIC50 in assay [4] is 5.67; in assay [3] it was 6.46.
